In patent US20240299358A1, “COMPOSITIONS AND METHODS FOR DIAGNOSIS AND TREATMENT OF AUTOIMMUNE DISEASES” (DUKE UNIVERSITY, priority 2021, published 2024):

Legend:
[1] = test system: collagen induced arthritic (CIA) mouse model; assay: Therapeutic efficacy in CIA mouse model (clinical score and joint histology); format: in vivo; conditions: 30 mg/kg QD
Protocol: FIGS. 9A-9E illustrate therapeutic potential of eHsp90 targeted therapies for the treatment of auto immune diseases. […] FIG. 9D are representative photomicrographs of forepaw, knee and ankle from a disease control (Naïve), diseased vehicle treated and HS-131 treated animals. “W” identifies wrist, arrows identifies representative affected joints, and “S” identifies inflammation. […] Experiment was performed once with 12 biological replicates per group.
CIA Disease: Collagen was prepared at 4 mg/ml in 0.01 N acetic acid. Equal volumes of 4 mg/ml collagen and 5 mg/ml Freund's complete adjuvant were emulsified by hand mixing with syringes for approximately 5 min, at which point a bead of this material holds its form when placed in water. On study days 0 and 21, animals were anesthetized with isoflurane and given intradermal injections of a total of 400 μg of type II collagen in Freund's complete adjuvant at the base of the tail.
CIA Experimental Design: Mice were randomized into treatment groups by body weight on study day 18. Animals were treated from day 21-36 of the study with either 20 μL of HS-131 (30 mg/kg) PO, QD or vehicle (DMSO) PO, QD. On study day 36, the mice were euthanized for necropsy. Clinical scores were given for each of the paws (right front, left front, right rear, left rear) on study days 21-36. 0=normal, 1=one hind or fore paw joints affected or minimal diffuse erythema and swelling, 2=two hind or fore paw joints affected or moderate diffuse erythema and swelling, 3=three hind or fore paw joints affected or moderate diffuse erythema and swelling, 4=four hind or fore paw joints affected or marked diffuse erythema and swelling, 5=entire paw affected, severe diffuse erythema and severe swelling, unable to flex digits. Experimenter was blinded from the treatment group during clinical evaluation and scoring.
Immunohistological Staining: After 24-48 hours in fixative and 4-5 days in 5% formic acid for decalcification, tissues were trimmed, and processed for paraffin embedding. Paws were embedded in paraffin in the frontal plane and the knees were embedded with the patella facing down. Ankles, if left attached to the hind paw, were also embedded in the frontal plane but may be detached and sectioned in the sagittal plane for special purposes. Sections were cut and stained with toluidine blue.
0=Normal. 0.5=Very minimal, affects only 1 joint or minimal multifocal periarticular infiltration of inflammatory cells. 1=Minimal infiltration of inflammatory cells in synovium and periarticular tissue of affected joints. 2=Mild infiltration of inflammatory cells. When referring to paws, generally restricted to affected joints (1-3 affected). 3=Moderate infiltration with moderate edema. When referring to paws, restricted to affected joints, generally 3-4 joints and the wrist or ankle. 4=Marked infiltration affecting most areas with marked edema, 1 or 2 unaffected joints may be present. 5=Severe diffuse infiltration with severe edema affecting all joints (to some extent) and periarticular tissues.
0=Normal. 0.5=Very minimal, affects only one area of the synovium or minimal multifocal periarticular infiltration of inflammatory cells. 1=Minimal infiltration of inflammatory cells in synovium and periarticular tissue of affected synovial areas. 2=Mild diffuse infiltration of inflammatory cells. 3=Moderate diffuse infiltration of inflammatory cells. 4=Marked diffuse infiltration of inflammatory cells. 5=Severe diffuse infiltration of inflammatory cells.
0=Normal. 0.5=Very minimal=Affects marginal zones only of one to several areas (knees) or joints (paws). 1=Minimal=Generally minimal to mild loss of toluidine blue staining (proteoglycan) with no obvious chondrocyte loss or collagen disruption in affected joints/areas. 2=Mild=Generally mild loss of toluidine blue staining (proteoglycan) with focal areas of chondrocyte loss and/or collagen disruption in some affected joints/areas. […]

Human CD3+ T cells = assay: Cytokine expression after anti-CD3/28 T cell stimulation with or without HS-131; format: cell-based; conditions: HS-131 1 μM, 24 hours, vs vehicle
Protocol: The data were analyzed by 2-way ANOVA with Sidak's multiple comparison test, * p<0.05, ** p<0.01. *** p<0.001. Experiments were performed with 6 biological replicates. […] Experiments were performed with 3 biological replicates for each timepoint. […] Experiments were performed with 3 biological replicates for each timepoint. […] Temporal upregulation of eHsp90 (green line) post T cell stimulation. CD25 expression: 6-8 biological replicates per time point. eHsp90 expression 6 biological replicates for each timepoint. […] Data represent mean ±SD. The data were analyzed by 2-way ANOVA with Sidaks multiple comparison test. Experiments were performed once with 3 biological replicates. […] Data represent mean ±SEM. […] Experiment was performed once with 4 biological replicates.
Next, the expression of eHsp90 and total Hsp90 over the course of T cell activation was tracked. Both total Hsp90 cellular content and eHsp90 expression in anti-CD3/28 stimulated human PBMCs were evaluated. […] Specifically, anti-CD3/28 stimulation caused eHsp90 up regulation in CD69+/CD25+ and CD69+/CD25− T-cell populations with a 5-8 fold increase within the first 24 hours post activation, whereas CD69−/CD25− T cells show no increase in probe or eHsp90 levels (see. FIG. 3B). […] One candidate client eHsp90 protein is CD25, the IL-2 receptor. […] Here it was observed that CD25 expression peaked at 72 hours post activation, followed by a reduction in expression thereafter which correlates with reduced eHsp90 expression (see. FIG. 3D). Due to the tight correlation of CD25 and eHsp90 expression, it further tested whether exogenous IL-2 stimulation could maintain high expression of both proteins in activated T cells 72-96 hours post-stimulation. […] Due to IL-2's ability to enhance eHsp90 expression in activated cells, the impacts of eHsp90 inhibition in activated T cells on inflammatory signaling were investigated. Human CD3+ T cells were stimulated with CD3/CD28 activating antibodies for 24 hours in the presence of HS-131. Compared to vehicle treated cells. […] IFNY (p<0.001). IL-17A (p<0.001). MIP-1a/B (p=0.013) and TNF a (p=0.025) (see. FIG. 3F).

Cc1nn(-c2ccc(C(N)=O)c(NCCCOCCOCCOCCOCCOCCCNCc3ccc(C(=C\C=C4\N(CCCCS(=O)(=O)[O-])c5ccccc5C4(C)C)/C=C/C4=[N+](CCCCS(=O)(=O)O)c5ccccc5C4(C)C)cc3)c2)c2c1C(=O)CC(C)(C)C2 [HS-131]
pathogenesis of disease development (animals developing disease) ([1]; day 21-36, N=12/group (FIG. 9A)): comparable to the vehicle control | reduction of bone resorption, histological scoring ([1]; day 36, vs vehicle (FIG. 9E)): 35% | reduction of cartilage damage, histological scoring ([1]; day 36, vs vehicle (FIG. 9E)): 36% | reduction of inflammation, histological scoring ([1]; day 36, vs vehicle (FIG. 9E)): 27% | reduction of pannus, histological scoring ([1]; day 36, vs vehicle (FIG. 9E)): 35% | reduction of periosteal bone, histological scoring ([1]; day 36, vs vehicle (FIG. 9E)): 29% | mean clinical arthritic score ([1]; throughout study period, vs vehicle, p<.001 (FIG. 9B)): significantly reduced | decrease in clinical score, area under the curve ([1]; vs vehicle (FIG. 9C)): ~23% | GM-CSF (Human CD3+ T cells; p<0.001): significantly reduced | IFNY (Human CD3+ T cells; p<0.001): significantly reduced | IL-17A (Human CD3+ T cells; p<0.001): significantly reduced | MIP-1a/B (Human CD3+ T cells; p=0.013): significantly reduced | TNF a (Human CD3+ T cells; p=0.025): significantly reduced
